Entries after “also recorded” stand apart in the source; their conditions may differ.
Key:
responder CD4+ T cells = assay: Treg suppression of responder CD4+ T cell proliferation in vitro; type: cell-based, mouse; details: Tregs generated in the presence of CDK8 inhibitor
Experimental: FIG. 19—Suppressing T-cell proliferation in vitro. Treg cells are co-cultured at increasing dilutions with CFSE-labeled responder CD4+ T cells and their ability to suppress responder T cell proliferation upon anti-CD3/CD28 stimulation is assessed. Naive CD4+ T cells from Foxp3IRES-GFP mice were cultured under either optimal conditions for Treg differentiation (Treg Hi) or sub-optimal Treg differentiation conditions in the presence of BRD6989. The resulting GFP+ Treg cells were sorted by FACS. […] Assay was performed as described in eLife 2015; 4:e05920.
Imbalances between anti-inflammatory (FoxP3+ Treg) and pro-inflammatory (TH1 and TH17) CD4+ T cell lineages can lead to pathogenic inflammations in a number of diseases contexts. Therapeutic strategies that enhance FoxP3+ Treg differentiation and/or function are being pursued for treatment of immune and inflammatory disorders. Treatment of naïve CD4+ T cells in the presence of multiple structural classes of CDK8 inhibitors can enhance differentiation into FoxP3+Tregs (FIG. 16).

[1] = test system: Zymosan A-stimulated BMDCs; assay: Cytokine production by Zymosan A-stimulated BMDCs; type: cell-based, mouse
Excerpt: Towards the goal of identifying new mechanisms of IL-10 regulation, 59,346 small molecules were screened for the ability to enhance IL-10 production by activated bone marrow-derived dendritic cells (BMDCs) using a high-throughput assay developed previously (Sundberg et al., PNAS 111:12468-12473, 2014). Compounds were derived from both commercial collections and structurally and skeletally diverse libraries prepared by diversity-oriented synthesis (DOS). More than 60 hit compounds were identified that reproducibly enhance IL-10 production in a concentration-dependent manner (Table 1). Three distinct chemotypes were prioritized for follow-up based on potency and an initial analysis of structure-activity relationship (SAR) with respect to core scaffold, stereochemistry and side chains (FIG. 2a).
(§1) The pyridinyl tetrahydroquinoline BRD6989 (10) emerged as a prioritized hit in the screen (FIG. 2a and Table 2). […] Thus, BRD6989 enhances IL-10 production in activated human and murine macrophages and dendritic cells by a mechanism that appears most pronounced following stimulation of toll-like receptors-7 (TLR7) and TLR8 by R848.

[2] = test system: mouse bone marrow-derived macrophages (BMDMs); assay: IL-10 production in BMDMs activated with Zymosan A or R848; type: cell-based
Excerpt: as §1

414 kinases = assay: Kinase profiling by binding and activity assays
Excerpt: Given that the pyridine core of BRD6989 is a common kinase-binding motif (Xing et al., J Comput Aided Mol Des 28:13-23, 2014), its activity against 414 kinases was profiled using a series of binding and activity assays. […] Binding of BRD6989 to CDK8, and its paralog CDK19, was confirmed using an orthogonal kinase-profiling format.

STAT1 = STAT1 phosphorylation in IFNγ-stimulated BMDCs; type: cell-based, mouse; details: IFNγ-induced
Excerpt: Together, these kinase profiling, binding assay, enzyme inhibition and cell-based data identify the Mediator-associated kinases CDK8, and to a lesser degree CDK19, as molecular targets of BRD6989.

[3] = test system: Cyclin C/CDK8 complexes in BMDCs; assay: Cytokine production by R848-stimulated BMDCs from CcncΔ/Δ or Ccncf/f mice; type: cell-based, mouse
Experimental: Next, to determine whether IL-10 potentiation by CDK8 inhibitors requires functional Cyclin C/CDK8 complexes, differentiation was performed of BMDCs from CcncΔ/Δ mice in which Cyclin C can be specifically disrupted in hematopoietic cells relative to Ccncf/f littermates, which lack the polyinosinic:polycytidylic acid (polyI:C)-responsive Mx1-Cre (Li et al., Nature Cell Biology 16; 1080, 2014) (FIG. 11a). […] The impaired response of BMDCs lacking Cyclin C to BRD6989 and dCA are consistent with a model in which CDK8 restrains IL-10 production during activation of wild type myeloid cells.

[4] = test system: naïve, splenic CD4+ T cells; assay: IL-10 production during ex vivo differentiation of Tregs; type: cell-based
Experimental: FIG. 10—Cellular activities of CDK8 inhibitors. […] (b) Effect of CDK7 inhibitor THZ1 on viability and IL-10 production of R848-stimulated BMDCs (each point corresponds to mean±S.D.; n=4 biological replicates from 1 independent experiment). (c) IL-10 levels were quantified in tissue culture media generated during differentiation of naïve, splenic CD4+ T cells into Treg's in the presence of dCA (0.1 μM) or BRD6989 (5 μM) (each point correspond to mean±S.D.; n=3 biological replicates from 1 independent experiment; *, P<0.05; n.s., not significant using one-way ANOVA with Dunnett's post-test). Data from all panels is representative of at least 2 independent experiments.
(§2) Pre-treatment with these CDK8/19 inhibitors recapitulated the IL-10 potentiating activity of BRD6989 in both BMDCs (FIG. 9b) along with human DCs derived from two independent donors in the context of R848 stimulation (FIGS. 9c and 10a).

R848-stimulated BMDCs = assay: Cytokine production by R848-stimulated BMDCs; type: cell-based, mouse
Excerpt: as §1, §2

BMDMs = assay: Transcriptional profiling of stimulated BMDMs; type: cell-based, mouse
Experimental: To define systematically the role of CDK8 during innate immune activation, the transcriptional responses elicited by dCA or BRD6989 following stimulation of BMDMs were profiled with a panel of 10 microbial ligands or Sendai virus for time points from 15 min to 4 hours. BMDMs were chosen for these experiments because, like human and mouse DCs, they upregulate IL-10 in response to CDK8 inhibition (FIG. 5c), and they have been previously studied using the multiplexed pathway reporter assay described below (O'Connell, et al., Cell Syst 2:323-34, 2016). In this experiment, the transcriptional responses elicited by BRD6989 and dCA were highly correlated (FIG. 12a), again supporting CDK8 as a principle cellular target of BRD6989.

[5] = test system: human, monocyte-derived DCs; assay: IL-10 production in human monocyte-derived DCs stimulated with R848; type: cell-based
Excerpt: as §1, §2

CC1CCc2nc(N)c(C#N)c(-c3cccnc3)c2C1 (centres unmarked) [BRD6989]
suppression of CD4+ T cell proliferation by inhibitor-induced Tregs (responder CD4+ T cells): suppressed the proliferation of co-cultured responder CD4+ T cells in vitro at each dilution
EC50 ([1]; Mus musculus, BMDC, pre-treatment 48 hr, Zymosan A 18 hr, read-out: IL-10 production EC50): ~1000 nM
production of IL-12p40 ([1]; Zymosan A-induced): largely unchanged
production of TNFα ([1]; Zymosan A-induced): largely unchanged
release of IL-6 ([1]; Zymosan A-induced): suppressed
production of IL-1β ([1]; Zymosan A-stimulated / activated BMDCs): largely unchanged
IL-1β production ([1]; stimulation with R848 or Zymosan A): minimally elevates IL-1β production
IL-10 production [2]: increased IL-10 production; also recorded: up-regulates IL-10 production
secondary targets in kinase profiling (414 kinases; both kinase profiling experiments): phosphatidylinositol-4,5-bisphosphate 3-kinases C2A (PI3KC2A) and PI3KCG as secondary targets
kinase selectivity (414 kinases; kinase profiling): remarkable selectivity
JAK-mediated phosphorylation of STAT1 Y701 (STAT1): did not affect
phosphorylation of STAT1 at S727 (STAT1): inhibited; also recorded: suppresses phosphorylation
phosphorylation of STAT1 at S727 (STAT1; listed as BRD-6989): Dose dependent inhibition of CDK8 dependent
IL-10 upregulation in Ccncf/f BMDCs [3]: remained intact
IL-10 upregulation in CcncΔ/Δ BMDCs ([3]; Cyclin C deleted): failed to upregulate IL-10
IL-6 production in CcncΔ/Δ BMDCs ([3]; saturating concentrations): no further reduction
IL-10 production during Treg differentiation [4]: neither dCA nor BRD6989 dramatically increased IL-10 production
IL-10 production (R848-stimulated BMDCs): greater fold-increase in IL-10 production
expression of interferon-inducible genes Ifit2, Cxcl10 and Rsad2 (BMDMs): reduced expression of the interferon-inducible genes Ifit2, Cxcl10 and Rsad2
IL-10 production [5]: up-regulated IL-10

Source: US11285144B2, “Use of CDK8 inhibitors to treat diseases of inflammation and autoimmunity” (THE BROAD INSTITUTE, INC., priority 2016, dated 2022)
